Results: patent US20230172204A1 (BASF SE, priority 2020, published 2023)

Legend:
[1] = tested on: Phakopsora pachyrhizi (F129L); assay: Protective control of soybean rust on soybeans (PHAKPA P2); format: in vivo; conditions: soybean rust F129L; for % PHAKPA (F129L) Disease level P2 at 4 ppm: protective P2, 4 ppm; for % PHAKPA (F129L) Disease level P2 at 16 ppm: protective P2, 16 ppm
[2] = tested on: Phakopsora pachyrhizi (F129L); assay: Protective control of soybean rust on soybeans (PHAKPA P6); format: in vivo; conditions: soybean rust F129L; for % PHAKPA (F129L) Disease level P6 at 4 ppm: protective P6, 4 ppm; for % PHAKPA (F129L) Disease level P6 at 16 ppm: protective P6, 16 ppm

Row | Structure (SMILES) | % PHAKPA (F129L) Disease level P2 at 4 ppm [1] | % PHAKPA (F129L) Disease level P2 at 16 ppm [1] | % PHAKPA (F129L) Disease level P6 at 4 ppm [2] | % PHAKPA (F129L) Disease level P6 at 16 ppm [2]
1 | CO/N=C(/C(=O)OC)c1cccc(C)c1CO/N=C(\C)c1cc(F)ccc1Br [compound 254] | 100% | 77% | 100% | 100%
2 | CNC(=O)/C(=N/OC)c1cccc(C)c1CO/N=C(\CC(F)(F)F)c1cc(Cl)cc(Cl)c1 [compound 255] | 97% | 83% | 100% | 87%
3 | CO/N=C(/C(=O)OC)c1cccc(C)c1CO/N=C(\C)c1ccc(F)cc1Cl [compound 256] | 50% | 18% | 70% | 20%
4 | CO/N=C(/C(=O)OC)c1cccc(C)c1CO/N=C(\C)c1ccc(Br)cc1C(F)(F)F [compound 257] | 93% | 35% | 100% | 57%
5 | CNC(=O)/C(=N/OC)c1cccc(C)c1CO/N=C(\C)c1ccc(Br)cc1C(F)(F)F [compound 258] | 32% | 7% | 73% | 8%
6 | CO/N=C(/C(=O)OC)c1cccc(C)c1CO/N=C(\C)c1ccc(OC(F)(F)F)cc1C [compound 259] | 80% | 17% | 93% | 40%
7 | CNC(=O)/C(=N/OC)c1cccc(C)c1CO/N=C(\C)c1ccc(F)cc1C(F)(F)F [compound 260] | 22% | 0% | 22% | 0%
8 | CNC(=O)/C(=N/OC)c1cccc(C)c1CO/N=C(\C)c1ccc(OC(F)(F)F)cc1C [compound 261] | 70% | 9% | 87% | 32%
9 | CNC(=O)/C(=N/OC)c1cccc(C)c1CO/N=C(\C)c1ccc(F)cc1Cl [compound 262] | 63% | 1% | 47% | 4%
10 | CO/N=C(/C(=O)OC)c1cccc(C)c1CO/N=C(\C)c1ccc(F)cc1C(F)(F)F [compound 263] | 80% | 15% | 73% | 22%
11 | CO/N=C(/C(=O)OC)c1cccc(C)c1CO/N=C(\C)c1ccc(F)cc1F [compound 266] | 67% | 18% | 90% | 43%
12 | CNC(=O)/C(=N/OC)c1cccc(C)c1CO/N=C(\C)c1ccc(F)cc1F [compound 267] | 2% | 0% | 10% | 4%
13 | CO/N=C(/C(=O)OC)c1cccc(C)c1CO/N=C(\C)c1ccc(OC(F)(F)F)cc1Cl [compound 268] | 63% | 6% | 60% | 17%
14 | CO/N=C(/C(=O)OC)c1cccc(C)c1CO/N=C(\C)c1ccc(OC(F)(F)F)cc1F [compound 269] | 5% | 0% | 18% | 0%
15 | CNC(=O)/C(=N/OC)c1cccc(C)c1CO/N=C(\C)c1ccc(OC(F)(F)F)cc1F [compound 270] | 3% | 0% | 0% | 1%
16 | CNC(=O)/C(=N/OC)c1cccc(C)c1CO/N=C(\C)c1ccccc1COC [compound 277] | 100% | 60% | 100% | 100%
17 | CNC(=O)/C(=N/OC)c1cccc(C)c1CO/N=C(\C)c1cc(C)ccc1C [compound 278] | 90% | 60% | 90% | 93%
18 | CO/N=C(/C(=O)OC)c1cccc(C)c1CO/N=C(\C)c1c(F)cccc1Cl [compound 283] | 83% | 30% | 87% | 22%

Row | Structure (SMILES) | % PHAKPA (F129L) Disease level P2 at 4 ppm [1] | % PHAKPA (F129L) Disease level P2 at 16 ppm [1] | % PHAKPA (F129L) Disease level P6 at 4 ppm [2] | % PHAKPA (F129L) Disease level P6 at 16 ppm [2]
19 | CNC(=O)/C(=N/OC)c1cccc(C)c1CO/N=C(\C)c1c(F)cccc1Cl [compound 284] | 63% | 44% | 62% | 34%
20 | CO/N=C(/C(=O)OC)c1cccc(C)c1CO/N=C(\C)c1c(C)cccc1F [compound 285] | 87% | 50% | 90% | 35%
21 | C#Cc1cc(F)ccc1/C(C)=N/OCc1c(C)cccc1/C(=N\OC)C(=O)NC [compound 286] | 67% | 15% | 97% | 27%
22 | CNC(=O)/C(=N/OC)c1cccc(C)c1CO/N=C(\C)c1ccccc1C1CC1(F)F (stereo not drawn) [compound 288] | 87% | 30% | 97% | 20%
23 | CNC(=O)/C(=N/OC)c1cccc(C)c1CO/N=C(\C)c1c(Cl)cccc1C(F)(F)F [compound 290] | 92% | 14% | 83% | 21%
24 | CC/C(=N\OCc1c(C)cccc1/C(=N\OC)C(=O)NC)c1ccccc1 [compound 294] | 1% | 1% | 2% | 0%
25 | CNC(=O)/C(=N/OC)c1cccc(C)c1CO/N=C(\COC)c1ccccc1 [compound 295] | 2% | 0% | 11% | 0%
26 | CNC(=O)/C(=N/OC)c1cccc(C)c1CO/N=C(\C)c1ccccc1C1(C)CC1 [compound 296] | 100% | 40% | 100% | 83%
27 | CO/N=C(/C(=O)OC)c1cccc(C)c1CO/N=C(\C)c1cccc(C2CC2)c1 [compound 297] | 90% | 37% | 87% | 37%
28 | CNC(=O)/C(=N/OC)c1cccc(C)c1CO/N=C(\C)c1ccccc1C(F)F [compound 298] | 63% | 7% | 97% | 37%
29 | CNC(=O)/C(=N/OC)c1cccc(C)c1CO/N=C(\C)c1cccc(C2CC2)c1 [compound 299] | 53% | 13% | 53% | 22%
30 | CO/N=C(/C(=O)OC)c1cccc(C)c1CO/N=C(\C)c1cccc(C(C)(F)F)c1 [compound 302] | 47% | 4% | 47% | 3%
31 | CNC(=O)/C(=N/OC)c1cccc(C)c1CO/N=C(\C)c1cccc(C(C)(F)F)c1 [compound 303] | 2% | 0% | 12% | 0%
32 | CO/N=C(/C(=O)OC)c1cccc(C)c1CO/N=C(\C)c1ccc(Cl)cc1C(F)(F)F [compound 304] | 53% | 28% | 100% | 37%
33 | CNC(=O)/C(=N/OC)c1cccc(C)c1CO/N=C(\C)c1ccc(OC)cc1C(F)(F)F [compound 324] | 2% | 1% | 12% | 0%
34 | CNC(=O)/C(=N/OC)c1cccc(C)c1CO/N=C(\C)c1c(F)cccc1OC(F)(F)F [compound 325] | 24% | 4% | 22% | 1%
35 | CNC(=O)/C(=N/OC)c1cccc(C)c1CO/N=C(\C)c1cccc(F)c1C(F)(F)F [compound 326] | 25% | 0% | 30% | 1%
36 | CNC(=O)/C(=N/OC)c1cccc(C)c1CO/N=C(\C)c1ccc(C)cc1C(F)(F)F [compound 327] | 23% | 3% | 48% | 4%
